IC50 and GI50 data for four compounds are collected here from patent US20240150375A1, “MACROCYCLIC COMPOUNDS AND USES THEREOF” (Theseus Pharmaceuticals, Inc., priority 2021, published 2024).

In one assay the target is EGFR^L858R/T790M/C797S (Homo sapiens, UniProt P00533, C797S/L858R/T790M). Briefly: HTRF KinEASE-TK in vitro kinase assay, EGFR L858R/T790M/C797S (LTC). The assay is classed as biochemical. The conditions noted are these: EGFR L858R/T790M/C797S kinase inhibition. From the text:
(§1) The biological activity of compounds described herein can be studied according to standard methods known in the art. Methods can be used to study inhibition of EGFR, including mutant forms of EGFR comprising L858R, T790M, C797S, and/or Del19 mutations, or any combination thereof (e.g., L858R single, double, or triple mutants). Exemplary, non-limiting methods are described herein.
(§2) Assays using an in vitro kinase assay kit (HTRF KinEASE-TK kit) can be used to study the inhibitory activity of compounds described herein with respect to EGFR mutants such as ECFR^L858R, EGFR^L858R/T790M, and EGFR^L858R/T790M/C797S.
(§3) One hundred thirty six compounds were studied using the kinase (EGFR) and BA/F3 assays described herein, with more than 60% of the tested compounds providing IC50<50 nM values in all six assays. Accordingly, compounds of the invention are a new general class of kinase inhibitors, including potent inhibitors of EGFR mutants.
(§4) Exemplary kinase inhibition (Kinase) and anti-proliferation activity (Ba/F3) data are shown in Table 1 for certain compounds of the invention and are categorized according to the below legend.
In general terms: In TR-FRET formats the signal depends on donor and acceptor labels being close together.

A further assay addresses EGFR^L858R/T790M (Homo sapiens, UniProt P00533, L858R/T790M). Briefly: HTRF KinEASE-TK in vitro kinase assay, EGFR L858R/T790M (LT). The conditions noted are these: EGFR L858R/T790M kinase inhibition. The format is biochemical.
Description: as §1, §2, §3, §4

A further assay concerns the target EGFR^L858R (Homo sapiens, UniProt P00533, L858R). Briefly: HTRF KinEASE-TK in vitro kinase assay, EGFR L858R (L). The format is biochemical. The settings on record: EGFR L858R kinase inhibition.
Description: as §1, §2, §3, §4

Assay [1] has as its target Ba/F3 EGFR-Del19/T790M/C797S (Homo sapiens, UniProt P00533, T790M/C797S, cells depend on it, form not given). Briefly: Ba/F3 viability assay (CellTiter-Glo), EGFR-Del19/T790M/C797S (DTC). The format is cell-based. The conditions noted are these: Ba/F3 EGFR-Del19/T790M/C797S anti-proliferation; read-out: BAF3 DTC IC50.
Description: (§5) Inhibition of cell proliferation can be studied using Ba/F3 viability assays, including the Promega CellTiter-Glo cell viability assay. This assay can be used to study the effect of compounds described herein in the following assays: (1) Ba/F3 Parental; (2) Ba/F3 EGFR-Del19/T790M; (3); Ba/F3 EGFR-Del19/C797S; and (4) Ba/F3 EGFR-Del119/T790M/C797S.
as §3, §4
(In general: Cellular ATP, detected with luciferase, serves as a proxy for viable cell number.)

The target of the next assay is Ba/F3 EGFR-Del19/T790M (Homo sapiens, UniProt P00533, T790M, cells depend on it, form not given). Briefly: Ba/F3 viability assay (CellTiter-Glo), EGFR-Del19/T790M (DT). The format is cell-based. The conditions noted are these: Ba/F3 EGFR-Del19/T790M anti-proliferation; read-out: BAF3 DT IC50.
Description: as §5, §3, §4

The next assay deals with Ba/F3 EGFR-Del19/C797S (Homo sapiens, UniProt P00533, C797S, cells depend on it, form not given). Briefly: Ba/F3 viability assay (CellTiter-Glo), EGFR-Del19/C797S (DC). The format is cell-based. The conditions noted are these: Ba/F3 EGFR-Del19/C797S anti-proliferation; read-out: BAF3 DC IC50.
Description: as §5, §3, §4

Some results are limits rather than exact numbers.

Ba/F3 EGFR-Del19/C797S, sequence (P00533 with tags, fused parts or gaps DEL746-750/C797S, form open): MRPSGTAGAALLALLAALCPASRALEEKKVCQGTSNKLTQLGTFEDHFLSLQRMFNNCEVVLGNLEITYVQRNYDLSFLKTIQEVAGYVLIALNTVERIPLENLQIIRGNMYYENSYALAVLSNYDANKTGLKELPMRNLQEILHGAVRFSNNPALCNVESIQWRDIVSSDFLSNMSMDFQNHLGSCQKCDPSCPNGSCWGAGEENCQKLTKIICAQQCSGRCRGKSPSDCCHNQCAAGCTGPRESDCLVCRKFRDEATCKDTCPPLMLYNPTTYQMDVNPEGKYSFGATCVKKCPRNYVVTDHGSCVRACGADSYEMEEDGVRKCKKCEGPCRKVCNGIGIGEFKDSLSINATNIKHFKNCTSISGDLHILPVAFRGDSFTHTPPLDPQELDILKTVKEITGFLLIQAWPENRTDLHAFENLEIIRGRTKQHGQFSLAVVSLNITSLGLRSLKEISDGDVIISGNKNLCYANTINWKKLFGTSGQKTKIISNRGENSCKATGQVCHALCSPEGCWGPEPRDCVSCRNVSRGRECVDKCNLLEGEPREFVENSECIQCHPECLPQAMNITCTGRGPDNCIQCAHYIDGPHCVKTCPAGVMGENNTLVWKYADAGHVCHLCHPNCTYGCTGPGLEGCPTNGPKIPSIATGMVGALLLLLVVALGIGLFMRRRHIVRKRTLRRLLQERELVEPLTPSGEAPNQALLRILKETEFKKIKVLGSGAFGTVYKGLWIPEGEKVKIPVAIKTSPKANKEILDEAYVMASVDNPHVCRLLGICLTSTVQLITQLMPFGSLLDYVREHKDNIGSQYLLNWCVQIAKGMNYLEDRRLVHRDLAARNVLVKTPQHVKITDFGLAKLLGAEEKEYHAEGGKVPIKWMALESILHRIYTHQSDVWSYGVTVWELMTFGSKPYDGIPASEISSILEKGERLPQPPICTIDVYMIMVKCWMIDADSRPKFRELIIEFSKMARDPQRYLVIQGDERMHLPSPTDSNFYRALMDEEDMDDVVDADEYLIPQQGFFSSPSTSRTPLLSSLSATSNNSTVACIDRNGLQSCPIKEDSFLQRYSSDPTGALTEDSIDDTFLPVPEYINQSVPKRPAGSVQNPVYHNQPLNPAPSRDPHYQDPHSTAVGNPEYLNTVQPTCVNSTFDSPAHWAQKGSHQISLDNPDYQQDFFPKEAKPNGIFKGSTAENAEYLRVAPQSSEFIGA
EGFR^L858R/T790M, sequence (P00533 25-1210 T790M/L858R): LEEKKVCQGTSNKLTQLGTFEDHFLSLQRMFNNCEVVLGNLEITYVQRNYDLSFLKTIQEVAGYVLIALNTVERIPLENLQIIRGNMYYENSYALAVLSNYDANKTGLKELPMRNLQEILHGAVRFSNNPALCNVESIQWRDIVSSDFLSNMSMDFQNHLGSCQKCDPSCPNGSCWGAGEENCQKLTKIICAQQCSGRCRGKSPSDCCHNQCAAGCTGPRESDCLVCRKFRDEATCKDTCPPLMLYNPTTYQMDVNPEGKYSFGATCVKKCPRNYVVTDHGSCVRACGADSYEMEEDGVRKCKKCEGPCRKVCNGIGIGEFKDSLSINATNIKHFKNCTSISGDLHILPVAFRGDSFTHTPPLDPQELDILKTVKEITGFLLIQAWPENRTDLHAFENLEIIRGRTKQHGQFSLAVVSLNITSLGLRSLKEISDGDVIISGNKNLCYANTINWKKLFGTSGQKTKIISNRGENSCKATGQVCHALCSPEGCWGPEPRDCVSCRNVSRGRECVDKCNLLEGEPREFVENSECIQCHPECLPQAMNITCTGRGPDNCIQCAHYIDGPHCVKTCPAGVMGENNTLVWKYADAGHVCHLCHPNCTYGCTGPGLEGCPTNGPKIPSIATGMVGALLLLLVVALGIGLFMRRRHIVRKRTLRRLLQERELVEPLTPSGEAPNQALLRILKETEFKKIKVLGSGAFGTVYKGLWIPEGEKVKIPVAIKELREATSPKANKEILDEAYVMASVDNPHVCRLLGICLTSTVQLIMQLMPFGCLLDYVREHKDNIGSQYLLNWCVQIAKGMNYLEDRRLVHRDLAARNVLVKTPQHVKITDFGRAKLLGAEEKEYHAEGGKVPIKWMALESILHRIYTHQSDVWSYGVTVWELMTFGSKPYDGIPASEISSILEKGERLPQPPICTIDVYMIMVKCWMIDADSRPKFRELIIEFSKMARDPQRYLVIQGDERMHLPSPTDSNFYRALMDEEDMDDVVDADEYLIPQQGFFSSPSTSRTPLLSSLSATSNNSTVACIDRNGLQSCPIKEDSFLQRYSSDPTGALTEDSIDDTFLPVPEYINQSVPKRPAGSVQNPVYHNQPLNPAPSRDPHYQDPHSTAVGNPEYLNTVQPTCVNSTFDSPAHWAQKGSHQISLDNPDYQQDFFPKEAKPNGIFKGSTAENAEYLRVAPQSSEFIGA
Ba/F3 EGFR-Del19/T790M, sequence (P00533 with tags, fused parts or gaps DEL746-750/T790M, form open): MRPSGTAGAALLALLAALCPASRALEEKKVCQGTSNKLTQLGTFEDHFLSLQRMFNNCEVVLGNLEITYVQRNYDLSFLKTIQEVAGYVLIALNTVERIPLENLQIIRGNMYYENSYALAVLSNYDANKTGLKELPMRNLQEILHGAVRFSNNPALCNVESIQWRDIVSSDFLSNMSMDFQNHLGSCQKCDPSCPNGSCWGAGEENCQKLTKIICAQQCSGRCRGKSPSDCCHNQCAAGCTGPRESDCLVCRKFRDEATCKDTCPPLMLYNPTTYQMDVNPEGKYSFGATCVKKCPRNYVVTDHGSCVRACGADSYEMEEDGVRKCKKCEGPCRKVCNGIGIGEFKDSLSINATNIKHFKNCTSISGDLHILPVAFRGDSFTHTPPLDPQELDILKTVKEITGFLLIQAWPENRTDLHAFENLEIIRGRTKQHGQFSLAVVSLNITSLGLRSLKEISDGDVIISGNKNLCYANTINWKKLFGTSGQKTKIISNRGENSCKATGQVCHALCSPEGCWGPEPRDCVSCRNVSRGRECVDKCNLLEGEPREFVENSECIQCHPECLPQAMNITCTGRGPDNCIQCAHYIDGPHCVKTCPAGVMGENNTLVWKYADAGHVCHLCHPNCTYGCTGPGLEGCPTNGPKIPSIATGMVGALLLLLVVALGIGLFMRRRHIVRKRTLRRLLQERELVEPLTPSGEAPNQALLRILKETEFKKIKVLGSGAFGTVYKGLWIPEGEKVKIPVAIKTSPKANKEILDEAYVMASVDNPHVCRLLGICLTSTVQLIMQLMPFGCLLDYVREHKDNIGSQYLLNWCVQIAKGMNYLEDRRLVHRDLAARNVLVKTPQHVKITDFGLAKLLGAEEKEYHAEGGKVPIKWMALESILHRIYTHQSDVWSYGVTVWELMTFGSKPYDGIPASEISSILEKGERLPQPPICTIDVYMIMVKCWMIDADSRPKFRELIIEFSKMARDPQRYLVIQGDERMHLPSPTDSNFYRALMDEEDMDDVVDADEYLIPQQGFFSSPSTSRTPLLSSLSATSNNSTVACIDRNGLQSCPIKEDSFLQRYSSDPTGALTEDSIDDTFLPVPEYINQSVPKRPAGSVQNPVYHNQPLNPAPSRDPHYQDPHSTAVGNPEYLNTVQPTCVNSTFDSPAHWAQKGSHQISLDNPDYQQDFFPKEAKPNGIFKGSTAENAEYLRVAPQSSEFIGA
EGFR^L858R, sequence (P00533 25-1210 L858R): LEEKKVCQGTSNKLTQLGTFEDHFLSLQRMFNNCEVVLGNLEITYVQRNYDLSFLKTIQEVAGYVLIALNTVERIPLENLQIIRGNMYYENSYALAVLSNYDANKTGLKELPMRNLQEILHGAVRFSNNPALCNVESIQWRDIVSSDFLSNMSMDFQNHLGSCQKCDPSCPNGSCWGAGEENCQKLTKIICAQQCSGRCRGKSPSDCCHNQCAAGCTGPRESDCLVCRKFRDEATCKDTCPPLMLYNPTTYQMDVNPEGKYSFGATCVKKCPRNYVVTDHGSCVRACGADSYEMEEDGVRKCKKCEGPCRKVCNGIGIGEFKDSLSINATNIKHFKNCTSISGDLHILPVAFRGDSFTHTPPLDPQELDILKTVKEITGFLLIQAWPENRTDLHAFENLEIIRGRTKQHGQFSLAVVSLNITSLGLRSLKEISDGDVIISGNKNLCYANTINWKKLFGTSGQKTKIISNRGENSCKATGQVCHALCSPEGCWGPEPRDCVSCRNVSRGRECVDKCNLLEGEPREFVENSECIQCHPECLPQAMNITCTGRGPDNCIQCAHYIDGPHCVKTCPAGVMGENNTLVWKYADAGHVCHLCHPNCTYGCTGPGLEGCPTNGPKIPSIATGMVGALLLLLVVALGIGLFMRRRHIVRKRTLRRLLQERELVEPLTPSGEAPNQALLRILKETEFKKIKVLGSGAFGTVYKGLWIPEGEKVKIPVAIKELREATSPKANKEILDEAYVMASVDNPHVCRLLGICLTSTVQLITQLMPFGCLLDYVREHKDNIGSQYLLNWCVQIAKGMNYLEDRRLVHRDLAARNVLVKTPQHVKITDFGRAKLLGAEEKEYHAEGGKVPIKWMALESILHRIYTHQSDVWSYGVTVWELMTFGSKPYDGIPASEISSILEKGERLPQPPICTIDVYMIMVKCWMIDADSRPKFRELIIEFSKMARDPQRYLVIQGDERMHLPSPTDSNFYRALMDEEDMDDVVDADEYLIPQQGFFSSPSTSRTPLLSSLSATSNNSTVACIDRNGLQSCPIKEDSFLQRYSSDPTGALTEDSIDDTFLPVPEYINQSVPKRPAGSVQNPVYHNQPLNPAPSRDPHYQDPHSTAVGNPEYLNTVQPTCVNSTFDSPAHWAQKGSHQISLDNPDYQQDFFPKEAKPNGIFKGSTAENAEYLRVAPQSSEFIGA

As a reminder, the IC50 is the concentration that inhibits the measured activity by half. In the case of `C[C@H]1CCOc2c(cnn2C)-c2nccc(n2)Nc2cc(ccn2)O1` [(153)], the results for the IC50 at EGFR^L858R/T790M/C797S, on EGFR^L858R/T790M and on EGFR^L858R were under 50 nM, under 50 nM and 100 to 1000 nM, respectively. Further, the GI50 (in assay [1]; on Ba/F3 EGFR-Del19/T790M; at Ba/F3 EGFR-Del19/C797S) was 100 to 1000 nM throughout.
`C[C@H]1CCOc2c(cnn2C)-c2nccc(n2)Nc2cc(c(-c3cccc(CN4CCN(C)CC4)c3)cn2)O1` [(159)]: the 50% inhibitory concentration (IC50) on EGFR^L858R/T790M/C797S, at EGFR^L858R/T790M and on EGFR^L858R was under 50 nM throughout. Also, the GI50 (in assay [1]; on Ba/F3 EGFR-Del19/T790M; at Ba/F3 EGFR-Del19/C797S) was under 50 nM each time.
For the compound `C[C@H]1CCOc2c(cnn2C)-c2nccc(n2)Nc2cc(c(-c3ccc(CN4CCN(C)CC4)cc3)cn2)O1` [(160)], the half-maximal inhibitory concentration (IC50) at EGFR^L858R/T790M/C797S, at EGFR^L858R/T790M and on EGFR^L858R was under 50 nM each time. In addition, the GI50 (in assay [1]; at Ba/F3 EGFR-Del19/T790M; at Ba/F3 EGFR-Del19/C797S) was under 50 nM throughout.
With `CC1CCOc2c(cnn2C)-c2nccc(n2)Nc2cc(c(-c3ccc(CN4CCN(C)CC4)cc3)cn2)O1` (stereo not drawn) [(169), 5,10-dimethyl-13-[4-[(4-methylpiperazin-1-yl)methyl]phenyl]-7,11-dioxa-4,5,15,17,21,22-hexazatetracyclo[16.3.1.112,16.02,6]tricosa-1(22),2(6),3,12(23),13,15,18,20-octaene], the 50% inhibitory concentration (IC50) on EGFR^L858R/T790M/C797S, on EGFR^L858R/T790M and at EGFR^L858R was under 50 nM throughout. In addition, the GI50 (in assay [1]; at Ba/F3 EGFR-Del19/T790M; at Ba/F3 EGFR-Del19/C797S) was under 50 nM throughout.
